Measurements reported in article PMC12045974, “T cell toxicity induced by tigecycline binding to the mitochondrial ribosome” (Nature Communications, 2025).
Values joined by “and” are separate entries in the source; they are usually repeats but may differ in a detail not shown here. Equal values may be shown once. Read-outs that look alike come from different tables or passages of the source.

Columns and labels:
[1] = test system: PBMCs; assay: Cell viability assay (CCK-8), PBMCs; type: cell-based, human; conditions: 72 h, PBMCs; for cell vialibity normalized to Vehicle (DMSO): in % (unit assumed)
Method: Buffy coats were ordered from anonymous blood donors at […]. […] Cells were seeded in 96-well plates ranging from 2000 to 15,000 cells per well depending on different cell lines and treated with antibiotics in serial dilutions for 72 h (120 h for the preliminary assays) in a humidified incubator (37 °C, 5% CO2) in 100 μl medium (DMEM with 10% FBS, 2.05 mM L-glutamine (Sigma) for Hek293 and Hela; RPMI-1640 with 10% FBS, 2.05 mM L-glutamine (Sigma), and 55 μM 2-ME (Gibco) for Jurkat T cells and PBMCs). Based on preliminary tests, the number of cells per well was optimized to 2000 for Hela and Hek293, 6000 for Jurkat T cells, and 15,000 for PBMCs. The stocks of antibiotics were prepared by dissolving in DMSO. As control, the same amount of DMSO was added to the non-treated groups. Serial drug dilutions were prepared in the corresponding medium to provide a total of 9 concentrations up to 300 μM for tetracyclines and up to 900 μM for additional bacterial protein synthesis inhibitors. After drug treatment, 10% CCK-8 (Cell Counting Kit-8, Sigma Aldrich) (10 μl per well) of the total volume was added to the cells and incubated for 1-4 h depending on cell lines (1 h for Hela and Hek293; 3 h for Jurkat T cells; 4 h for PBMCs) before the evaluation of the effect of antibiotics on cell viability. […] Results were visually confirmed under the light microscope. Each treatment was performed in technical repeats. Dose-response curves were plotted, mean ± SEM was shown, and half maximal inhibitory concentration (IC50) values were calculated in GraphPad Prism.

[2] = test system: Jurkat T cells; assay: Cell viability assay (CCK-8), Jurkat T cells; type: cell-based, human; conditions: Jurkat, 72 h, Fig. 1A, in % (unit assumed)
Method: Cells were seeded in 96-well plates ranging from 2000 to 15,000 cells per well depending on different cell lines and treated with antibiotics in serial dilutions for 72 h (120 h for the preliminary assays) in a humidified incubator (37 °C, 5% CO2) in 100 μl medium (DMEM with 10% FBS, 2.05 mM L-glutamine (Sigma) for Hek293 and Hela; RPMI-1640 with 10% FBS, 2.05 mM L-glutamine (Sigma), and 55 μM 2-ME (Gibco) for Jurkat T cells and PBMCs). Based on preliminary tests, the number of cells per well was optimized to 2000 for Hela and Hek293, 6000 for Jurkat T cells, and 15,000 for PBMCs. The stocks of antibiotics were prepared by dissolving in DMSO. As control, the same amount of DMSO was added to the non-treated groups. Serial drug dilutions were prepared in the corresponding medium to provide a total of 9 concentrations up to 300 μM for tetracyclines and up to 900 μM for additional bacterial protein synthesis inhibitors. After drug treatment, 10% CCK-8 (Cell Counting Kit-8, Sigma Aldrich) (10 μl per well) of the total volume was added to the cells and incubated for 1–4 h depending on cell lines (1 h for Hela and Hek293; 3 h for Jurkat T cells; 4 h for PBMCs) before the evaluation of the effect of antibiotics on cell viability. […] Results were visually confirmed under the light microscope. Each treatment was performed in technical repeats. Dose-response curves were plotted, mean ± SEM was shown, and half maximal inhibitory concentration (IC50) values were calculated in GraphPad Prism.

[3] = Homo sapiens, PBMC, dose 0.411523 μM, Fig. 1B, read-out: cell vialibity normalized to Vehicle (DMSO)
[4] = Homo sapiens, PBMC, Fig. 1B, read-out: cell vialibity normalized to Vehicle (DMSO)
[5] = Homo sapiens, PBMC, dose 1.23457 μM, Fig. 1B, read-out: cell vialibity normalized to Vehicle (DMSO)
[6] = Homo sapiens, PBMC, dose 11.1111 μM, Fig. 1B, read-out: cell vialibity normalized to Vehicle (DMSO)
[7] = Homo sapiens, PBMC, dose 0.0457247 μM, Fig. 1A, read-out: cell vialibity normalized to Vehicle (DMSO)
[8] = Homo sapiens, PBMC, Fig. 1A, read-out: cell vialibity normalized to Vehicle (DMSO)
[9] = Homo sapiens, PBMC, dose 0.411523 μM, Fig. 1A, read-out: cell vialibity normalized to Vehicle (DMSO)

Compound | viability at 300 µM [1, 4] [%] | cell vialibity normalized to Vehicle (DMSO) ([2]; dose 0.0457247 μM) | cell vialibity normalized to Vehicle (DMSO) ([2]; dose 0.137174 μM) | cell vialibity normalized to Vehicle (DMSO) ([2]; dose 1.23457 μM) | cell vialibity normalized to Vehicle (DMSO) ([2]; dose 3.7037 μM) | cell vialibity normalized to Vehicle (DMSO) ([2]; dose 11.1111 μM) | cell vialibity normalized to Vehicle (DMSO) ([2]; dose 33.3333 μM) | cell vialibity normalized to Vehicle (DMSO) ([2]; dose 100 μM) | cell vialibity normalized to Vehicle (DMSO) ([2]; dose 300 μM) | viability at 0.0457247 µM [1, 7] [%] | viability at 100 µM [1, 8] [%] | cell vialibity normalized to Vehicle (DMSO) ([2]; dose 0.411523 μM) | also measured
C=C[C@]1(C)C[C@@H](OC(=O)CSCCN(CC)CC)[C@]2(C)[C@H](C)CC[C@]3(CCC(=O)[C@H]32)[C@@H](C)[C@@H]1O [Tiamulin, tiamulin] | 7.89 |  |  |  |  |  |  |  |  |  |  |  | viability at 0.411523 µM [1, 3]: 103%; viability at 900 µM ([1]; Homo sapiens, PBMC, dose 900 μM, Fig. 1B, read-out: cell vialibity normalized to Vehicle (DMSO)): 3.99%
oxycycline |  | 95.9551 and 99.8266 and 111.591 | 122.921 and 100.043 and 106.21 | 104.27 and 99.6099 and 104.508 | 87.8652 and 92.4577 and 103.45 | 101.124 and 98.0061 and 123.919 | 92.809 and 101.734 and 114.305 | 28.8764 and 25.2276 and 26.6329 | 15.1685 and 10.4898 and 12.0515 |  |  |  | cell vialibity normalized to Vehicle (DMSO) ([1]; dose 0.0457247 μM, Fig. 1A): 99.5117 and 100.066 and 89.1698 and 120.008 and 102.707; cell vialibity normalized to Vehicle (DMSO) ([1]; dose 0.137174 μM, Fig. 1A): 101.938 and 102.097 and 92.5408 and 113.339 and 130.667; cell vialibity normalized to Vehicle (DMSO) ([1]; dose 0.411523 μM, Fig. 1A): 93.1002 and 107.019 and 97.4538 and 111.081 and 113.453; cell vialibity normalized to Vehicle (DMSO) ([1]; dose 1.23457 μM, Fig. 1A): 93.4625 and 104.955 and 100.95 and 107.767 and 104.422; cell vialibity normalized to Vehicle (DMSO) ([1]; dose 3.7037 μM, Fig. 1A): 87.0825 and 89.8101 and 98.4579 and 106.835 and 106.22; cell vialibity normalized to Vehicle (DMSO) ([1]; dose 11.1111 μM, Fig. 1A): 86.2319 and 86.9364 and 102.905 and 107.27 and 113.598; cell vialibity normalized to Vehicle (DMSO) ([1]; dose 33.3333 μM, Fig. 1A): 84.2313 and 84.0462 and 91.6801 and 95.3397 and 99.442
CC(=O)NC[C@H]1CN(c2ccc(N3CCOCC3)c(F)c2)C(=O)O1 [Linezolid, linezolid] | 24.4 |  |  |  |  |  |  |  |  |  |  |  | 
CCC[C@@H]1C[C@@H](C(=O)N[C@@H]([C@H]2O[C@H](SC)[C@H](O)[C@@H](O)[C@H]2O)[C@H](C)Cl)N(C)C1 [Clindamycin, clindamycin] | 63 |  |  |  |  |  |  |  |  |  |  |  | viability at 0.137174 µM ([1]; Homo sapiens, PBMC, dose 0.137174 μM, Fig. 1B, read-out: cell vialibity normalized to Vehicle (DMSO)): 97%; viability at 0.411523 µM [1, 3]: 95.8%; viability at 1.23457 µM [1, 5]: 92.3%; viability at 11.1111 µM [1, 6]: 102%; viability at 100 µM [1, 4]: 94.6%
CN(C)[C@@H]1C(O)=C(C(N)=O)C(=O)[C@@]2(O)C(O)=C3C(=O)c4c(O)cccc4[C@@](C)(O)[C@H]3C[C@@H]12 [Tetracycline, tetracycline] |  | 102.181 and 108.663 and 114.096 | 99.1611 and 103.998 and 102.471 | 99.3708 and 109.246 and 98.7059 | 100.377 and 106.955 and 130.118 | 115.478 and 121.824 and 122.353 |  | 13.3809 and 13.536 and 12.3529 |  | 96 | 42.5 | 100 and 102.207 and 96 | viability at 300 µM [1, 8]: 28.2%
C=C1c2cccc(O)c2C(=O)C2=C(O)[C@]3(O)C(=O)C(C(N)=O)=C(O)[C@@H](N(C)C)[C@@H]3[C@@H](O)[C@H]12 [Methacycline, methacycline] |  | 104.711 and 102.732 and 106.75 | 102.378 and 109.807 and 118.32 | 108.031 and 101.209 and 106 | 100.628 and 106.046 and 105.75 | 118.035 and 121.182 and 107.162 | 32.5707 and 32.2436 and 34.2424 | 20.0538 and 20.6001 and 28.3196 | 11.2607 and 14.1961 and 17.0248 | 105 | 30 | 103.32 and 108.822 and 104.75 | viability at 0.411523 µM [1, 9]: 102%
CN(C)c1ccc(O)c2c1C[C@H]1C[C@H]3[C@H](N(C)C)C(O)=C(C(N)=O)C(=O)[C@@]3(O)C(O)=C1C2=O [Minocycline, minocycline] |  | 100.385 and 100.531 and 101.165 |  | 99.8718 and 96.2387 and 90.2372 | 105.513 and 101.758 and 90.3163 | 49.6581 and 44.3173 and 49.0295 | 19.6154 and 18.6836 and 25.6578 | 12.3932 and 10.5887 and 15.9454 | 6.111 and 6.95 and 5.018 | 97.4 | 46.6 | 98.2906 and 97.4244 and 90.1654 | viability at 0.137174 µM ([1]; Homo sapiens, PBMC, dose 0.137174 μM, Fig. 1A, read-out: cell vialibity normalized to Vehicle (DMSO)): 98.5%; viability at 0.411523 µM [1, 9]: 100%; viability at 1.23457 µM ([1]; Homo sapiens, PBMC, dose 1.23457 μM, Fig. 1A, read-out: cell vialibity normalized to Vehicle (DMSO)): 95.2%; viability at 3.7037 µM ([1]; Homo sapiens, PBMC, dose 3.7037 μM, Fig. 1A, read-out: cell vialibity normalized to Vehicle (DMSO)): 91.6%; viability at 11.1111 µM ([1]; Homo sapiens, PBMC, dose 11.1111 μM, Fig. 1A, read-out: cell vialibity normalized to Vehicle (DMSO)): 87.6%; viability at 33.3333 µM ([1]; Homo sapiens, PBMC, dose 33.3333 μM, Fig. 1A, read-out: cell vialibity normalized to Vehicle (DMSO)): 81.2%
CC[C@H]1OC(=O)[C@H](C)[C@@H](O[C@H]2C[C@@](C)(OC)[C@@H](O)[C@H](C)O2)[C@H](C)[C@@H](O[C@@H]2O[C@H](C)C[C@H](N(C)C)[C@H]2O)[C@](C)(O)C[C@@H](C)CN(C)[C@H](C)[C@@H](O)[C@]1(C)O [Azithromycin, azithromycin] |  |  |  |  |  |  |  |  |  |  |  |  | viability at 1.23457 µM [1, 5]: 91%; viability at 11.1111 µM [1, 6]: 82%
